Measurements as given in ChEMBL document CHEMBL1122011, “Synthesis of N-(carbonylamino)-1,2,3,6-tetrahydropyridines with analgesic, antiinflammatory, and hyperglycemic activity” (J Med Chem, 1982).

How the values were obtained:
[1] = species on record: Mus musculus; assay: animal or person; conditions: sc, read-out: Inhibition
Description: Analgesic activity in mice using phenylquinone writhing test at 0.038 mg/kg, sc dose

[2] = system: Rattus norvegicus; assay: % change in blood glucose concentration after 2 hr post treatment at 100 mg/kg, po; type: functional; set-up: unit: %
[3] = system: Rattus norvegicus; assay: (§1) % change in blood glucose concentration after 4 hr post treatment at 100 mg/kg, po; type: functional; set-up: unit: %
[4] = system: Mus musculus; assay: Analgesic activity in mice using phenylquinone writhing test at 30 mg/kg, sc dose; type: functional; conditions: route subcutaneous
[5] = system: Rattus norvegicus; assay: % change in blood glucose concentration after 2 hr post treatment at 17 mg/kg, po; type: functional
[6] = system: Mus musculus; assay: Analgesic activity in mice using phenylquinone writhing test at 10 mg/kg, sc dose. 2 mg/kg Noxolone was prior to compound injection; type: functional
[7] = system: Mus musculus; assay: Analgesic activity in mice using phenylquinone writhing test at 10 mg/kg, sc dose; type: functional; conditions: route subcutaneous
[8] = system: Mus musculus; assay: Analgesic activity in mice using phenylquinone writhing test at 0.0075 mg/kg, sc dose; type: functional; conditions: route subcutaneous
[9] = system: Rattus norvegicus; assay: % change in blood glucose concentration after 4 hr post treatment at 30 mg/kg, po; type: functional
[10] = system: Mus musculus; assay: Analgesic activity in mice using phenylquinone writhing test at 3 mg/kg, sc dose. 0.6 mg/kg Noxolone was prior to compound injection; type: functional
[11] = system: Mus musculus; assay: Analgesic activity in mice using phenylquinone writhing test at 3mg/kg, sc dose; type: functional
[12] = system: Mus musculus; assay: Effective dose in mouse hotplate test at 55+/-0.5 degree Centigrade after 30 min of dosing; type: functional; conditions: 0.5 h
[13] = system: Rattus norvegicus; assay: Inhibitory against carrageenan induced paw edema in rat at 120 mg/kg, sc dose after 5 hr; type: functional; conditions: route subcutaneous
[14] = system: Mus musculus; assay: Analgesic activity in mice using phenylquinone writhing test at 60 mg/kg, sc dose; type: functional; conditions: route subcutaneous
[15] = system: Rattus norvegicus; assay: Inhibitory against carrageenan induced paw edema in rat at 120 mg/kg, sc dose after 3h; type: functional; conditions: route subcutaneous
[16] = system: Mus musculus; assay: Analgesic activity in mice using phenylquinone writhing test at 120 mg/kg, sc dose; type: functional; conditions: route subcutaneous
[17] = system: Mus musculus; assay: Analgesic activity in mice using phenylquinone writhing test at 25 mg/kg, sc dose; type: functional; conditions: route subcutaneous
[18] = system: Rattus norvegicus; assay: % change in blood glucose concentration after 2 hr post treatment at 41 mg/kg, po; type: functional
[19] = system: Rattus norvegicus; assay: % change in blood glucose concentration after 4 hr post treatment at 53 mg/kg, po; type: functional
[20] = system: Mus musculus; assay: Analgesic activity in mice using phenylquinone writhing test at 16.5 mg/kg, sc dose; type: functional; conditions: route subcutaneous
[21] = system: Rattus norvegicus; assay: % change in blood glucose concentration after 2 hr post treatment at 36.5 mg/kg, po; type: functional
[22] = system: Rattus norvegicus; assay: Inhibitory against carrageenan induced paw edema in rat at 128 mg/kg, sc dose after 3h; type: functional; conditions: route subcutaneous
[23] = system: Rattus norvegicus; assay: as §1; type: functional
[24] = system: Mus musculus; assay: Analgesic activity in mice using phenylquinone writhing test at 14.5 mg/kg, sc dose; type: functional; conditions: route subcutaneous
[25] = system: Rattus norvegicus; assay: Inhibitory against carrageenan induced paw edema in rat at 128 mg/kg, sc dose after 5 hr; type: functional; conditions: route subcutaneous
[26] = system: Rattus norvegicus; assay: % change in blood glucose concentration after 4 hr post treatment at 128 mg/kg, po; type: functional
[27] = system: Rattus norvegicus; assay: % change in blood glucose concentration after 2 hr post treatment at 128 mg/kg, po; type: functional
[28] = system: Mus musculus; assay: Inhibitory against carrageenan induced paw edema in mice at 128 mg/kg, sc dose after 3h; type: functional; conditions: route subcutaneous
[29] = system: Mus musculus; assay: Inhibitory against carrageenan induced paw edema in mice at 128 mg/kg, sc dose after 5 hr; type: functional; conditions: route subcutaneous
[30] = system: Mus musculus; assay: Analgesic activity in mice using phenylquinone writhing test at 128 mg/kg when administered subcutaneously; type: functional; conditions: sc, route subcutaneous
[31] = system: Rattus norvegicus; assay: % change in blood glucose concentration after 2 hr post treatment at 50 mg/kg, po; type: functional
[32] = system: Rattus norvegicus; assay: % change in blood glucose concentration after 4 hr post treatment at 60 mg/kg, po; type: functional
[33] = system: Mus musculus; assay: Analgesic activity in mice using phenylquinone writhing test at 0.00075 mg/kg, sc dose; type: functional; conditions: route subcutaneous
[34] = system: Mus musculus; assay: Analgesic activity in mice using phenylquinone writhing test at 50 mg/kg, sc dose; type: functional; conditions: route subcutaneous
[35] = system: Mus musculus; assay: Inhibitory against carrageenan induced paw edema in mice at 12 mg/kg, sc dose after 3h; type: functional; conditions: route subcutaneous
[36] = system: Mus musculus; assay: Inhibitory against carrageenan induced paw edema in mice at 12 mg/kg, sc dose after 5 hr; type: functional; conditions: route subcutaneous
[37] = system: Mus musculus; assay: Analgesic activity in mice using phenylquinone writhing test at 56 mg/kg, sc dose; type: functional; conditions: route subcutaneous

Row | Structure (SMILES) | Hyperglycemic activity [2] | Hyperglycemic activity [3] | inhibition in vivo at 30 mg/kg [4] | further results
1 | CN1CC[C@]23c4c5ccc(O)c4O[C@H]2[C@@H](O)C=C[C@H]3[C@H]1C5 |  |  |  | inhibition in vivo at 0.038 mg/kg [1]: 50%
2 | O=C(NN1CC=CCC1)C1CC1 | 66 | 111 | 100% | 
3 | O=C(NN1CC=CCC1)c1cccs1 | 116 | 64 | 77% | 
4 | O=C(NN1CC=CCC1)c1ccco1 | 181 | 182 | 99% | Hyperglycemic activity [5]: 50; Inhibition [6]: 99.2%; inhibition in vivo at 10 mg/kg [7]: 98.4%; inhibition in vivo at 0.0075 mg/kg [8]: 50%; Hyperglycemic activity [9]: 50
5 | CCOC(=O)NN1CC=CCC1 | 27 | 91 | 99% | Inhibition [10]: 86%; inhibition in vivo at 3 mg/kg [11]: 85.6%; ED50 [12]: 19.5 mg/kg
6 | O=C(Cc1ccc2c(c1)OCO2)NN1CC=CCC1 | 7 | 21 |  | inhibition in vivo at 120 mg/kg [13]: 0%; inhibition in vivo at 60 mg/kg [14]: 80%; inhibition in vivo at 120 mg/kg [15]: 0%
7 | O=C(CCc1ccccc1)NN1CC=CCC1 | 27 | 25 |  | inhibition in vivo at 120 mg/kg [13]: 83%; inhibition in vivo at 120 mg/kg [16]: 42%; inhibition in vivo at 120 mg/kg [15]: 83%
8 | O=C(COc1cccc2ccccc12)NN1CC=CCC1 | 9 | 14 | 76% | 
9 | O=C(COc1ccccc1)NN1CC=CCC1 |  |  |  | inhibition in vivo at 120 mg/kg [13]: 80%; inhibition in vivo at 25 mg/kg [17]: 50%; Hyperglycemic activity [18]: 50; inhibition in vivo at 120 mg/kg [15]: 83%; Hyperglycemic activity [19]: 50
10 | O=C(NN1CC=CCC1)C1CCCCC1 |  |  |  | inhibition in vivo at 120 mg/kg [13]: 84%; inhibition in vivo at 16.5 mg/kg [20]: 50%; inhibition in vivo at 120 mg/kg [15]: 50%; Hyperglycemic activity [19]: 50; Hyperglycemic activity [21]: 50
11 | CC(=O)NN1CC=CCC1 | 35 | 36 | 99% | 
12 | O=C(Cc1cccnc1)NN1CC=CCC1 | 0 |  |  | inhibition in vivo at 128 mg/kg [22]: 50%; Hypoglycemic activity [23]: -6; inhibition in vivo at 14.5 mg/kg [24]: 50%; inhibition in vivo at 128 mg/kg [25]: 50%
13 | O=C(NN1CC=CCC1)C1CCCC1 | 54 | 22 | 98% | 
14 | O=C(NN1CC=CCC1)c1cccc[n+]1[O-] |  |  |  | Hypoglycemic activity [26]: <20; Hypoglycemic activity [27]: <20; inhibition in vivo at 128 mg/kg [28]: 34%; inhibition in vivo at 128 mg/kg [29]: 0%; inhibition in vivo at 128 mg/kg [30]: 55%
15 | CC(C)(C)C(=O)NN1CC=CCC1 | 70 | 101 | 100% | 
16 | O=C(NN1CC=CCC1)c1cccc(C(=O)NN2CC=CCC2)n1 | -8 | 10 | 60% | 
17 | O=C(NN1CC=CCC1)C1CCCCCC1 | 100 | 82 | 98% | Hyperglycemic activity [31]: 50; Hyperglycemic activity [32]: 50; inhibition in vivo at 0.00075 mg/kg [33]: 50%
18 | O=C(NN1CC=CCC1)C12C[C@H]3C[C@@H](C1)C[C@@H](C2)C3 | 33 | 22 | 86% | 
19 | Cn1cccc1C(=O)NN1CC=CCC1 | 35 | 25 | 90% | 
20 | CC(=O)Oc1ccccc1C(=O)O [ASPIRIN] |  |  |  | inhibition in vivo at 50 mg/kg [34]: 50%
21 | COc1ccc2c(c1)c(CC(=O)O)c(C)n2C(=O)c1ccc(Cl)cc1 [INDOMETHACIN] |  |  |  | inhibition in vivo at 12 mg/kg [35]: 17%; inhibition in vivo at 12 mg/kg [36]: 83%
22 | CCC(=O)O[C@](Cc1ccccc1)(c1ccccc1)[C@H](C)CN(C)C [PROPOXYPHENE] |  |  |  | inhibition in vivo at 56 mg/kg [37]: 50%
